# Source: patent publication US20240033244A1, “COMPOSITIONS AND METHODS FOR INHIBITING YTHDF1” (SHANGHAI INSTITUTE OF MATERIA MEDICA, CHINESE ACADEMY OF …, priority 2020, published 2024)
# pKd: −log10 of the molar value.
# Assays:
# [1] = test system: tumor infiltrating T cells; assay: Flow cytometry of exhaustion markers on tumor infiltrating T cells; type: in vivo, mouse; details: 14 days after tumor inoculation
# Description: For flow cytometry analysis and DCs sorting, tumors, draining lymph nodes were gathered from mice and digested with 100 U/mL collagenase IV and 20 μg/mL DNase I at 37° C. for 40 min. Digestion was stopped by FACS buffer (PBS contains 2% FBS and 1 mM EDTA) and samples were filtered through 70-μm cell strainer. Samples were stained by specific antibodies in FACS buffer on ice for 30 min. Antibody information was described in Table 1 below. All samples were washed with FACS buffer after staining, cells were analyzed on BD Fortessa and sorted by AriaIII.
# In addition, terminally exhausted T cells (PD-1 and Tim-3 double positive cells) were assessed 14 days after tumor inoculation with SAA treatment, and it was observed that the frequency of these tumor infiltrating terminally exhausted T cells (PD-1^+Tim-3^+) decreased in SAA treated mice (FIG. 18b), confirming the enhanced anti-tumor activity.
# YTHDF1 mutant N378A = molecular target: T1, YTHDF1 mutant N378A (Homo sapiens, UniProt Q9BYJ9, N378A); assay: FP assay with YTHDF1 mutant N378A; type: binding
# T1 construct: GST (N, cleaved yes); made in house; host or cells: E. coli BL21 (DE3)
# T1 sequence (Q9BYJ9 with tags, fused parts or gaps N378A): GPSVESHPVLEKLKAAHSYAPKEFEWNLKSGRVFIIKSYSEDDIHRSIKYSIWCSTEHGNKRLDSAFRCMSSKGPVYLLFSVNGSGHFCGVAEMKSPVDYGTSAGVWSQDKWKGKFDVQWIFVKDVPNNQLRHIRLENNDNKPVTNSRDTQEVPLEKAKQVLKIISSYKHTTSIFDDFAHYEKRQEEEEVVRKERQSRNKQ
# Description: (§1) The protein YTHDF1 (361-559) (SEQ ID NO: 2) and its mutants (SEQ ID NOs: 4-13) were cloned into pGEx-6P-1 vector (obtained from YouBio Co, Ltd, Catalog NO: VT1258), and the His-YTHDF1 (361-559) (SEQ ID NO: 3) used in AlphaScreen Assay was cloned into modified pET28a vector (obtained from YouBio Co, Ltd, Catalog NO: VT1207). The vectors were transformed into E. coli BL21 (DE3) cells and cultured at 37° C. When OD value reached 0.6˜0.8, 1 mM Isopropyl-β-D-thiogalactopyranoside was added to overexpress the protein at 16° C. overnight. […] Then, the proteins were further purified via cation exchange (HiTrap SP, GE Healthcare) and finally through a Superdex 75 10/300 column (GE Healthcare). At last, the purified YTHDF1(361-559) and the mutants were kept in buffer which contains 20 mM Hepes (pH 7.4) and 200 mM NaCl. For His-YTHDF1 (361-559), the protein was purified via Ni-NTA chromatography (HisTrap FF, GE Healthcare), followed by cation exchange and Superdex 75 10/300 column in sequence. And the obtained protein was kept in the buffer with the same ingredients.
# (§2) All of the YTHDF1 (361-559), the 5′-FAM labeled m^6A-containing mRNA (5′-FAM-[…] (m^6A) CUGUG-3′, SEQ ID NO: 14) and the candidate compounds were diluted with assay buffer (20 mM Hepes (pH 7.4), 50 mM NaCl, 0.01% (v/v) tween 20, 5% (v/v) glycerol). […] At last, the mixtures were measured by Envision Readers (PerkinElmer). […]
# YTHDF1 mutant F382A = molecular target: T2, YTHDF1 mutant F382A (Homo sapiens, UniProt Q9BYJ9, F382A); assay: FP assay with YTHDF1 mutant F382A; type: binding
# T2 construct: GST (N, cleaved yes); made in house; host or cells: E. coli BL21 (DE3)
# T2 sequence (Q9BYJ9 with tags, fused parts or gaps F382A): as the sequence (Q9BYJ9 with tags, fused parts or gaps N378A) above, with A20N, F24A counted along it
# Description: as §1, §2
# B16-OVA tumor = B16-OVA tumor growth, SAA with anti-PD-L1 antibody; type: in vivo, mouse; details: 5×10^5 B16-OVA; 10 μM SAA day 9 and 11; 100 ug anti-PD-L1 antibody day 9
# Description: For B6 mice tumor growth, 5×10^5 B16-OVA or 1×10^6 E.G7-OVA tumor cells were inoculated subcutaneously (s.c.) into the flank of mice. Tumor length (a) and width (b) was measured every two days and tumor volume was calculated by the formula ab^2/2. For the inhibitor treatment, 10 μM SAA or DMSO was injected intraperitoneally (i.p.) on day 9 and 11 after tumor inoculation. For other mice model (rag1^−/− and Ythdf1 conditional knockout), times and dose of inhibitor treatment was the same. For α-PD-L1 and SAA combination treatment, 5×10^5 B16-OVA tumor cells were inoculated subcutaneously into the flank of mice. 100 μg α-PD-L1 antibody (clone 10F.9G2) or rat immunoglobulin were administered at day 9 after tumor inoculation. 10 μM SAA or DMSO was administered in the same way on day 9 and 11 after tumor injection.
# Wild-type mice were injected subcutaneously with 5×10^5 B16-OVA cells. 10 μM SAA was injected to each mouse on day 9 and day 11. Mice were also treated with 100 ug anti-PD-L1 antibody on day 9. Tumor growth was monitored over time.
# YTHDF1 (361-559) = molecular target: T3, YTHDF1 (361-559) (Homo sapiens, UniProt Q9BYJ9); assay: SPR binding assay
# T3 construct: GST (N, cleaved yes); made in house; host or cells: E. coli BL21 (DE3)
# T3 sequence (Q9BYJ9 with tags, fused parts or gaps): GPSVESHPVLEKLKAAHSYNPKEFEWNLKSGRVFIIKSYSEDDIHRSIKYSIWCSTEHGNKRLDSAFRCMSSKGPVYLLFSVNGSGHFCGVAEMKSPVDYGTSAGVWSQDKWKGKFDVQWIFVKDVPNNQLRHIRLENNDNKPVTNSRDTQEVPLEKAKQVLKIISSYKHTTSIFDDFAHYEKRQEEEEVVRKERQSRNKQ
# Description: SPR binding assay was conducted at 25° C. on the Biacore T200 instrument (GE Healthcare). YTHDF1 (361-559) was covalently immobilized on a CM5 chip via standard amine-coupling procedure in the condition of 10 mM sodium acetate (pH 5.5).
smiles,measurement,setting,value
"O=C(/C=C/c1ccc(O)c(O)c1/C=C/c1ccc(O)c(O)c1)O[C@H](Cc1ccc(O)c(O)c1)C(=O)O [SAA, Salvianolic Acid A]",CXCR5 expression of PD-1low population,[1],much more CXCR5 than DMSO group
same,frequency of tumor infiltrating terminally exhausted T cells (PD-1+Tim-3+),[1],decreased
same,inhibitory activity against mutant binding to m6A versus wildtype,YTHDF1 mutant N378A,significantly weaker than that against wildtype YTHDF1
same,inhibitory activity against mutant binding to m6A versus wildtype,YTHDF1 mutant F382A,significantly weaker than that against wildtype YTHDF1
same,B16-OVA tumor growth,B16-OVA tumor,partially inhibit
same,pKd,YTHDF1 (361-559),5.60
